The values that follow come from patent US8476197B2, “Aminopropenoates as fungicides” (priority 2009, dated 2013).

One may read the Log P as a log measure of how a compound divides between an organic and an aqueous phase.

Molecules are shown by their SMILES. Marks after values point to notes of the source that are not given here.

The conditions of the first data set: pH 2.3.
Turning to `CC(C)C(C)NC(=O)C(C#N)=C(NC(C)C(C)C)c1cccnc1Cl` (stereo not shown) [Compound 1283], the log partition coefficient (Log P) was 4.02^[c]; 4.02^[b].
Take `CCOC(=O)C(C#N)=C(Nc1cccc(F)c1OC)c1cccnc1Cl` [Compound 1611]: the “Log P” value was 3.13^[c]; 3.13^[b].
The same measure, in the same setting: under `COC(=O)C(C#N)=C(Nc1ccccc1SC)c1cccnc1Cl` [Compound 334] stands 2.82^[c]; 2.82^[b]; under `CCOC(=O)C(C#N)=C(NC(C)C(C)C)c1cccnc1-c1ccc(C(F)(F)F)cc1` (stereo not shown) [Compound 1457], 4.23; under `CCOC(=O)C(C#N)=C(NC(C)C(C)C)c1ccc(Cl)nc1Cl` (stereo not shown) [Compound 986], 3.85^[c]; 3.85^[b].
Same read-out and setting: under `COC(=O)C(C#N)=C(NCc1ncccn1)c1cccnc1Cl` [Compound 13] stands 1.57^[c]; 1.57^[b]; under `CCOC(=O)C(C#N)=C(NC(C)C1CC1)c1cccnc1OCc1ccccc1` (stereo not shown) [Compound 1570], 3.08^[c]; 3.08^[b].
Consider `CC(C)C(C)NC(=C(C#N)C(=O)NCC(F)(F)F)c1cccnc1Cl` (stereo not shown) [Compound 992], for which the “Log P” value came out at 3.17.

The same data set, now with this note: pH 2.7.
Take `CCOCC(CC)NC(=C(C#N)C(=O)OCC)c1cccnc1Cl` (stereo not shown) [Compound 1372]: the log partition coefficient (Log P) was 3.31^[a].
On to `CCOC(=O)C(C#N)=C(NC(c1cc2ccccc2s1)C(F)(F)F)c1c(C)nn(C)c1F` (racemic) [Compound 51], for which the “Log P” value is 4.25^[a].
For `CCCc1nccc(C(NC(C)c2nccs2)=C(C#N)C(=O)OCC)c1Cl` (stereo not shown) [Compound 1382], the log partition coefficient (Log P) was 3.27^[a].
On the same count and under the same terms, under `CCOC(=O)C(C#N)=C(NC(C)c1ccccn1)c1cc(Cl)sc1Cl` (racemic) [Compound 222] stands 2.41^[a]; under `CCOC(=O)C(C#N)=C(NCc1ccccc1SC)c1sccc1C(F)(F)F` [Compound 463], 4.09^[a].
As for `CCOC(=O)C(C#N)=C(NC(C)(C)C#Cc1ccc(C#N)cc1)c1cccnc1Cl` [Compound 1272], the log partition coefficient (Log P) is 3.67^[a].
`CCOC(=O)C(C#N)=C(NC(CC(C)C)C(F)(F)F)c1cn(C)nc1C(F)F` (stereo not shown) [Compound 1417]: the “Log P” value is 3.8^[a].
On to `CCOC(=O)C(C#N)=C(Nc1ccc(Cl)cc1)c1cn(C)nc1C(F)F` [Compound 475], for which the log partition coefficient (Log P) is 3.23^[a].
Regarding `CCOC(=O)C(C#N)=C(NC(C#N)c1ccc(Cl)cc1Cl)c1cn(C)nc1C(F)F` (stereo not shown) [Compound 1231], the “Log P” value was 3.55^[a].
Regarding `CCOC(=O)C(C#N)=C(Nc1ccccc1SC)c1ccsc1Br` [Compound 412], the “Log P” value was 3.99^[a].
Consider `CON=C(C)NC(=O)C(C#N)=C(NC(C)C(C)C)c1cccnc1Cl` (stereo not shown) [Compound 1619], for which the “Log P” value is 1.88^[a].
Turning to `CCOC(=O)C(C#N)=C(NC(C)C(=O)OCC)c1sccc1Br` (racemic) [Compound 672], the “Log P” value is 3.33^[a].
For the compound `CCNC(=O)C(C#N)=C(NC(C)C(C)C)c1ccnc(C)c1Cl` (stereo not shown) [Compound 1249], the “Log P” value was 3.08^[a].
In the case of `CC(C)C(C)NC(=C(C#N)C(=O)N1CCSCC1)c1cccnc1Cl` (stereo not shown) [Compound 1507], the “Log P” value was 3.27^[a].
With `CC(C)C(C)NC(=C(C#N)C(=O)N(C)C1CC1)c1cccnc1Cl` (stereo not shown) [Compound 1513], the “Log P” value is 3.02^[a].
For `C=CCCCC(C=C)NC(=C(C#N)C(=O)OCC)c1ncc(C(F)(F)F)cc1Cl` (racemic) [Compound 1015], the lipophilicity (Log P) is 4.82^[a].
On the same count and under the same terms, under `CCOC(=O)C(C#N)=C(NC(C)c1cc(C)ccn1)c1cccnc1Cl` (stereo not shown) [Compound 1442] stands 2.6^[a].
As to `CCOC(=O)C(C#N)=C(NC(C)c1nc(C)c(C)s1)c1conc1C` (stereo not shown) [Compound 74], the “Log P” value is 3.02^[a].
Take `CCOC(=O)C(C#N)=C(NC(C)C(C)C)c1cc(Cl)cc(Cl)n1` (stereo not shown) [Compound 983]: the lipophilicity (Log P) is 4.26^[a].
The same measure, in the same setting: under `CCOC(=O)C(C#N)=C(NC(C)C(N)=O)c1nc(SC)ncc1Br` (stereo not shown) [Compound 709] stands 2.13^[a].
As for `CCOC(=O)C(C#N)=C(NC(C)C1CC1)c1ncc(Cl)cc1Cl` (stereo not shown) [Compound 889], the “Log P” value was 3.8^[a].
As for `CCOC(=O)C(C#N)=C(NC1CC1(C)C)c1cn(C)nc1C(F)F` (stereo not shown) [Compound 1148], the “Log P” value was 3^[a].
In the case of `CCOC(=O)C(C#N)=C(NC(C)C(=O)NC)c1ccncc1Cl` (stereo not shown) [Compound 723], the “Log P” value was 1.78^[a].
As for `CCOC(=O)C(C#N)=C(NC(C)COc1c(C)cccc1C)c1sccc1C(F)(F)F` (racemic) [Compound 654], the “Log P” value is 4.89^[a].
As to `CCOC(=O)C(C#N)=C(NC(C)COCc1ccccc1Cl)c1cccnc1Cl` (stereo not shown) [Compound 1172], the “Log P” value is 4.06^[a].
As for `CCOC(=O)C(C#N)=C(NC(C)c1c(C)nn(C)c1C)c1cccnc1Cl` (racemic) [Compound 277], the log partition coefficient (Log P) was 2.3^[a].
Same read-out and setting: under `CCCCCC(C)NC(=C(C#N)C(=O)OCC)c1cn(C)nc1C(F)F` (racemic) [Compound 855] stands 3.94^[a].
With `CCOC(=O)C(C#N)=C(NC(C)C1CC=CCC1)c1cn(C)nc1C(F)F` (stereo not shown) [Compound 1141], the lipophilicity (Log P) is 3.62^[a].
For `CCOC(=O)C(C#N)=C(NCCOC)c1cccnc1Cl` [Compound 1183], the “Log P” value was 2.17^[a].
With `CCOC(=O)C(C#N)=C(NC(C)C1CC2CCC1C2)c1cn(C)nc1C(F)F` (stereo not shown) [Compound 1134], the log partition coefficient (Log P) was 4.03^[a].
In the case of `COC(=O)C(C#N)=C(NC(C)c1cc(Cl)ccc1Cl)c1cccnc1Cl` (stereo not shown) [Compound 394], the “Log P” value was 3.28^[a].
Same read-out and setting: under `CC(NC(=C(C#N)C(=O)NCCF)c1cccnc1Cl)c1nccs1` (racemic) [Compound 1563] stands 2^[a]; under `CCOC(=O)C(C#N)=C(Nc1ccccc1SC)c1nsc(Cl)c1Cl` [Compound 358], 4.31^[a].
As for `CCOC(=O)C(C#N)=C(NC(C)c1ccc(Cl)cc1)c1cn(C)nc1C(F)F` (stereo not shown) [Compound 348], the “Log P” value is 3.6^[a].
As for `CCOC(=O)C(C#N)=C(NC1CCC1)c1ncc(Cl)cc1Cl` [Compound 795], the “Log P” value is 3.67^[a].
In the case of `CCOC(=O)C(C#N)=C(NC(CC)CC)c1cccnc1Cl` [Compound 1371], the “Log P” value is 3.35^[a].
For `COCCNC(=O)C(C#N)=C(NC(C)c1nccs1)c1cn(C)nc1C(F)F` (racemic) [Compound 1287], the log partition coefficient (Log P) was 1.96^[a].
For the compound `CCOC(=O)C(C#N)=C(NC(C)CCc1ccccc1)c1sccc1C(F)(F)F` (stereo not shown) [Compound 437], the “Log P” value was 4.56^[a].
As for `CCOC(=O)C(C#N)=C(NC(COC)COC)c1cccnc1Cl` [Compound 1358], the log partition coefficient (Log P) was 2.56^[a].
The same measure, in the same setting: under `CCOC(=O)C(C#N)=C(NC(C)Cc1c[nH]c2ccccc12)c1c(C(F)F)nn(C)c1Cl` (racemic) [Compound 237] stands 3.42^[a]; under `CCOC(=O)C(C#N)=C(NCc1ncc(C)s1)c1ccsc1Br` [Compound 247], 3^[a]; under `COC(=O)C(C#N)=C(NC(C)c1ccc(Cl)cc1)c1sc(C)nc1C(F)(F)F` (stereo not shown) [Compound 427], 3.98^[a].
Same read-out and setting: under `CCOC1CCCC1NC(=C(C#N)C(=O)OC)c1cccnc1Cl` (stereo not shown) [Compound 1059] stands 2.93^[a].
Regarding `CC(C)C(C)NC(=C(C#N)C(=O)N1CCCO1)c1cccnc1Cl` (stereo not shown) [Compound 1612], the “Log P” value was 2.55^[a].
As to `CSCCNC(=O)C(C#N)=C(NC(C)C(C)C)c1cccnc1Cl` (stereo not shown) [Compound 1510], the “Log P” value is 3.29^[a].
As for `COC(=O)C(C#N)=C(NC(C)C(=O)OC)c1sc(C)nc1C(F)(F)F` (stereo not shown) [Compound 665], the “Log P” value was 2.62^[a].
As to `COC(=O)C(C#N)=C(NCc1ccccc1SC)c1sc(C)nc1C(F)(F)F` [Compound 466], the “Log P” value is 3.55^[a].
Consider `CCOC(=O)C(C#N)=C(NC(C)c1ccccn1)c1ccnc(C(F)(F)F)c1Cl` (stereo not shown) [Compound 1625], for which the “Log P” value is 3.33^[a].
On the same count and under the same terms, under `CCOC(=O)C(C#N)=C(NC(C)C(C)C)c1sc(C)nc1C(F)(F)F` (stereo not shown) [Compound 949] stands 3.95^[a].
The same measure, in the same setting: under `CCOC(=O)C(C#N)=C(Nc1ccc(OC)cc1)c1cccnc1Cl` [Compound 1153] stands 2.98^[a].
With `CCOC(=O)C(C#N)=C(NC(C)c1cccc2ccccc12)c1cnc(Cl)cc1Cl` (stereo not shown) [Compound 3], the “Log P” value is 4.4^[a].
`CCOC(=O)C(C#N)=C(Nc1ccccc1SC)c1conc1C` [Compound 363]: the “Log P” value was 3.21^[a].
On to `CCOC(=O)C(C#N)=C(NC(C)C(C)C)c1ccnc(-c2ccccc2)c1Cl` (stereo not shown) [Compound 1403], for which the “Log P” value is 4.34^[a].
Same read-out and setting: under `CCOC(=O)C(C#N)=C(NC(C)C(C)C)c1cn(C)nc1C(F)F` (stereo not shown) [Compound 1003] stands 3.15^[a].
`CCOC(=O)C(C#N)=C(NC1CC1(C)C)c1cccnc1Cl` (stereo not shown) [Compound 1055]: the “Log P” value is 3.25^[a].
Still for that read-out and setting: under `CCOC(=O)C(C#N)=C(NC(C)(C)C#Cc1ccc(C)cc1)c1cccnc1Cl` [Compound 1268] stands 4.41^[a]; under `CCOC(=O)C(C#N)=C(NC1CC1CC)c1cn(C)nc1C(F)F` (stereo not shown) [Compound 1146], 3.04^[a].
For `CCOC(=O)C(C#N)=C(NC(C)CN(C)C)c1conc1C` (stereo not shown) [Compound 594], the “Log P” value was 0.76^[a].
For the compound `CCOC(=O)C(C#N)=C(NCc1nc(C(F)(F)F)cs1)c1sccc1C(F)(F)F` [Compound 177], the log partition coefficient (Log P) was 3.51^[a].
For the compound `C#CC(C)NC(=C(C#N)C(=O)OCC)c1sccc1Br` (stereo not shown) [Compound 1047], the “Log P” value is 3.17^[a].
Take `CNC(=O)C(C)NC(=C(C#N)C(=O)OC)c1sc(C)nc1C(F)(F)F` (stereo not shown) [Compound 638]: the “Log P” value is 1.93^[a].
The same measure, in the same setting: under `CCOC(=O)C(C#N)=C(NC(c1cc2ccccc2s1)C(F)(F)F)c1sccc1Cl` (racemic) [Compound 162] stands 4.89^[a].

Still in this data set, the particulars now being: pH 7.5.
For the compound `CC(C)C(C)NC(=O)C(C#N)=C(NC(C)C(C)C)c1cccnc1Cl` (stereo not shown) [Compound 1283], the “Log P” value was 4.02^[c]; 4.02^[b].
Regarding `CCOC(=O)C(C#N)=C(Nc1cccc(F)c1OC)c1cccnc1Cl` [Compound 1611], the “Log P” value was 3.13^[c]; 3.13^[b].
As to `COC(=O)C(C#N)=C(Nc1ccccc1SC)c1cccnc1Cl` [Compound 334], the “Log P” value is 2.82^[c]; 2.82^[b].
The same measure, in the same setting: under `CCOC(=O)C(C#N)=C(NC(C)C(C)C)c1cccnc1-c1ccc(C(F)(F)F)cc1` (stereo not shown) [Compound 1457] stands 4.25.
The same measure, in the same setting: under `CCOC(=O)C(C#N)=C(NC(C)C=NOC)c1cccnc1Cl` (mixture of isomers) [Compound 1322] stands 2.49; under `CCOC(=O)C(C#N)=C(NC(C)C(C)C)c1ccc(Cl)nc1Cl` (stereo not shown) [Compound 986], 3.85^[c]; 3.85^[b].
In the case of `COC(=O)C(C#N)=C(NCc1ncccn1)c1cccnc1Cl` [Compound 13], the log partition coefficient (Log P) is 1.57^[c]; 1.57^[b].
Regarding `CCOC(=O)C(C#N)=C(NC(C)C1CC1)c1cccnc1OCc1ccccc1` (stereo not shown) [Compound 1570], the “Log P” value is 3.08^[c]; 3.08^[b].
For the compound `CC(C)C(C)NC(=C(C#N)C(=O)NCC(F)(F)F)c1cccnc1Cl` (stereo not shown) [Compound 992], the “Log P” value stood at 3.16.
